Laboratory results published in patent publication US8106055B2, “Substituted amide compounds” (Gruenenthal GmbH, priority 2007, dated 2012).

Experiments:
[1] = molecular target: T1, human bradykinin 1 receptor (B1R) (Homo sapiens, UniProt P46663); assay: Functional investigation on the human bradykinin 1 receptor (B1R), Ca2+ FLIPR assay in CHO K1 hB1R cells; format: cell-based; conditions: test substance 10 μM, Ca2+ FLIPR, CHO K1 hB1R cells; for B1R Ant. h [10 μM] % Inhibition: B1R antagonism human
T1 construct: expressed in transfected cells; host or cells: CHO K1 cells
T1 sequence (P46663 1-353): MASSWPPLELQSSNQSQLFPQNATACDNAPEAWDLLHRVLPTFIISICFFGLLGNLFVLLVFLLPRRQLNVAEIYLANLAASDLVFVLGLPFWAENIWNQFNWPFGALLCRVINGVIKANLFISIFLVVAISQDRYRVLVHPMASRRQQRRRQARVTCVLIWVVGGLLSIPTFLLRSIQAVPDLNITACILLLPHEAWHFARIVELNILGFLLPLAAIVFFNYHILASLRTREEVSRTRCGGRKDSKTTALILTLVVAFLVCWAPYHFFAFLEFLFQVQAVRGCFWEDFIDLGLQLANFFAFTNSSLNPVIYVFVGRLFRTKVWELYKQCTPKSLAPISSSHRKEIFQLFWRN
Procedure, shortened: (§1)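 Peak Ca2+-dependent fluorescence in B1R-transfected CHO K1 cells measures antagonism of an EC80 agonist challenge given 10-20 min after compound. Agonist is Lys-Des-Arg9-bradykinin for human, Des-Arg9-bradykinin for rat receptor.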

[2] = molecular target: T2, bradykinin 1 receptor (B1R) of the rat (Rattus norvegicus, UniProt P97583); assay: Functional investigation on the rat bradykinin 1 receptor (B1R), Ca2+ FLIPR assay in CHO K1 rB1R cells; format: cell-based; conditions: test substance 10 μM, Ca2+ FLIPR, CHO K1 rB1R cells; for B1R Ant. r [10 μM] % Inhibition: B1R antagonism rat
T2 construct: expressed in transfected cells; host or cells: CHO K1 cells
T2 sequence (P97583 1-337): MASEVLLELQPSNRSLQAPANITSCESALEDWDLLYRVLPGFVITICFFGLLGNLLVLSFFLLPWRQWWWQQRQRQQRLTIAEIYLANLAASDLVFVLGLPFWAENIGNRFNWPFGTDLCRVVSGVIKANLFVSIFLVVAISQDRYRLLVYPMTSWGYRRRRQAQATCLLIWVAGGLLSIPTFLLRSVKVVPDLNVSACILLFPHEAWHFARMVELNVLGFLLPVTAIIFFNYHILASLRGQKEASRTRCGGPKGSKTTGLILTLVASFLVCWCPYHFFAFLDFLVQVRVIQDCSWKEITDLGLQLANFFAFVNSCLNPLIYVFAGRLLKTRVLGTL
Procedure, shortened: as §1

Structure (SMILES) | B1R Ant. h [10 μM] % Inhibition [1] [%] | B1R Ant. r [10 μM] % Inhibition [2] [%] | inhibition at 10 µM ([1]; CHO-K1, B1R antagonism human, read-out: B1R Ant. h [10 μM] % Inhibition) [%] | inhibition at 10 µM ([2]; CHO-K1, B1R antagonism rat, read-out: B1R Ant. r [10 μM] % Inhibition) [%]
CN(C)C(c1cccc(F)c1)C1CCC(NC(=O)COC2CCN(S(=O)(=O)c3ccc(Cl)cc3)C2)CC1 (centres unmarked) [Example 204] | 2 | −13 |  | 
CN(C)C(c1ccc(Cl)cc1)C1CCC(CCNC(=O)COCCN(C)S(=O)(=O)c2ccc(F)cc2)CC1 (centres unmarked) [Example 241] | 29 | 8 |  | 
CN(C)C(c1ccccc1)C1CCC(CNC(=O)COCC2CCCN(S(=O)(=O)c3ccccc3)C2)CC1 (centres unmarked) [Example 129, N((4((dimethylamino)(phenyl)methyl)cyclohexyl)methyl)-2-((1-(phenylsulfonyl)piperidin-3-yl)methoxy)acetamide] | −5 | 0 |  | 
COc1cc(C)c(S(=O)(=O)N2CCCC(OCC(=O)NCCC3CCC(C(c4cccc(F)c4)N(C)C)CC3)C2)c(C)c1C (centres unmarked) [Example 221] | 21 | 17 |  | 
COc1ccc(S(=O)(=O)N(C)CCOCC(=O)NC2CCC(C(c3cccs3)N(C)C)CC2)cc1OC (centres unmarked) [Example 206] | −5 | 20 |  | 
COc1ccc(S(=O)(=O)N2CCCCC2COCC(=O)NC2CCC(C(c3cccs3)N(C)C)CC2)cc1 (centres unmarked) [Example 243] | 16 | 27 |  | 
Cc1ccc(S(=O)(=O)N2CCC(OCC(=O)NCCC3CCC(C(c4cccs4)N(C)C)CC3)C2)cc1 (centres unmarked) [Example 272] | 20 | 32 |  | 
CN(C)C(c1ccccc1)C1CCC(CNC(=O)COC2CCN(S(=O)(=O)c3ccc(F)cc3)C2)CC1 (centres unmarked) [Example 219] | −1 | 14 |  | 
COc1cc(C)c(S(=O)(=O)N(C)CCOCC(=O)NC2CCC(C(c3cccc(F)c3)N(C)C)CC2)c(C)c1 (centres unmarked) [Example 228] | 104 | 99 |  | 
O=C(COCCN(C1CC1)S(=O)(=O)c1c(Cl)cc(Cl)cc1Cl)NC1CCC(C(c2ccccc2)N2CCCC2)CC1 (centres unmarked) [Example 603, 2-{2-[cyclopropyl-(2,4,6-trichlorobenzenesulfonyl)-amino]-ethoxy}-N-[4-(phenylpyrrolidin-1-ylmethyl)-cyclohexyl]-acetamide] |  |  | 86 | 85
COc1ccc(S(=O)(=O)N2CCCC2COCC(=O)NCCC2CCC(C(c3cccc(F)c3)N(C)C)CC2)cc1 (centres unmarked) [Example 224] | 34 | 47 |  | 
CN(C)C(c1cccs1)C1CCC(CCNC(=O)COC2CCCCC2N(C)S(=O)(=O)c2ccc(Cl)c(Cl)c2)CC1 (centres unmarked) [Example 214] | −2 | 19 |  | 
Cc1cc(C)c(S(=O)(=O)N(C)CCOCC(=O)NC2CCC(C(c3cccs3)N(C)C)CC2)c(C)c1 (centres unmarked) [Example 235] | 31 | −8 |  | 
